Results on one compound are retold here after US4173629A, “Antibiotic S 31794/F-1” (Sandoz Ltd., priority 1975, dated 1979).

In brackets after ≈: the same amount, converted by molar mass. *1 amine or outer side, *2 acyl side, *3 side chain or, on linkers, in order; H or OH if unused. Where a SMILES comes first, the peptide text is derived from it. Bridges are numbered along the chain shown (N, C = ends). [ ]: non-standard residue; d: D form. The star is where a group is joined. Orn(4R-OH,5R-OH) = O=C([C@H](C[C@@H](O)[C@@H](O)N[*:3])N[*:1])[*:2]; hTyr(3S-OH,4S-OH) = N[C@H](C(=O)O)[C@H](O)[C@@H](O)c1ccc(O)cc1; Pro(3S-OH,4S-Me) = C[C@H]1CN[C@H](C(=O)O)[C@H]1O; Gln(3R-OH) = NC(=O)C[C@@H](O)[C@H](N)C(=O)O; Hyp = O=C(O)[C@@H]1C[C@@H](O)CN1; Myristoyl = CCCCCCCCCCCCCC(=O)*

Data set [1] deals with usual gram-positive and gram-negative bacteria. Nature of the data set: activity spectrum, bacteria. It counts as cell-based.
Another data set can be described thus: Stability. It counts as physicochemical.
Data set [2] deals with yeast and fungi, particularly Candida strains. The data set can be described thus: activity spectrum, yeast and fungi. It is filed as cell-based. As to the method: (§1) The MIC (minimum inhibiting concentration) values are obtained in the well known series dilution test. The incubation was effected in a malt extract medium (2%) having a pH of 5.2-5.4 at 27° C. for 48 to 72 hours. The test strains are well known and have been deposited in the fungi collection of the firm Sandoz, Basel, where they are available for examination.

A further data set relates to Candida krusei. The data set can be described thus: MIC, series dilution test. It is filed as cell-based. The conditions noted are these: malt extract medium (2%), pH 5.2-5.4, 27° C., 48 to 72 hours. The protocol: as §1
The next data set relates to Sporotrichum schenkii. The data set can be described thus: MIC, series dilution test. It counts as cell-based. The note with it: malt extract medium (2%), pH 5.2-5.4, 27° C., 48 to 72 hours. As to the method:
as §1

A further data set concerns Neurospora crassa. The data set can be described thus: MIC, series dilution test. It counts as cell-based. The conditions noted are these: malt extract medium (2%), pH 5.2-5.4, 27° C., 48 to 72 hours. As to the method:
as §1

Data set [3] concerns Trichophyton mentagrophytes. The data set can be described thus: MIC, series dilution test. It is filed as cell-based. The note with it: malt extract medium (2%), pH 5.2-5.4, 27° C., 48 to 72 hours. As to the method:
as §1

A further data set relates to Blastomyces dermatitidis. The data set can be described thus: MIC, series dilution test. It is filed as cell-based. The conditions noted are these: malt extract medium (2%), pH 5.2-5.4, 27° C., 48 to 72 hours. The protocol: as §1
The test system of the next data set is Aspergillus fumigatus. Nature of the data set: MIC, series dilution test. It counts as cell-based. The conditions noted are these: malt extract medium (2%), pH 5.2-5.4, 27° C., 48 to 72 hours. The protocol: as §1
Another data set deals with Candida albicans 5897. The data set can be described thus: MIC, series dilution test. It is filed as cell-based. The conditions noted are these: malt extract medium (2%), pH 5.2-5.4, 27° C., 48 to 72 hours. As to the method: as §1
Data set [4] has as its system Candida albicans Blast. res. Nature of the data set: MIC, series dilution test. The note with it: malt extract medium (2%), pH 5.2-5.4, 27° C., 48 to 72 hours. It is filed as cell-based. As to the method:
as §1

The test system of another data set is Candida albicans H 12. The data set can be described thus: MIC, series dilution test. It counts as cell-based. The conditions noted are these: malt extract medium (2%), pH 5.2-5.4, 27° C., 48 to 72 hours. The protocol: as §1
The test system of the next data set is Candida tropicalis. Nature of the data set: MIC, series dilution test. It is filed as cell-based. The conditions noted are these: malt extract medium (2%), pH 5.2-5.4, 27° C., 48 to 72 hours. As to the method:
as §1

Another data set relates to Candida albicans 439. The data set can be described thus: MIC, series dilution test. It counts as cell-based. The conditions noted are these: malt extract medium (2%), pH 5.2-5.4, 27° C., 48 to 72 hours. The protocol:
as §1

The next data set concerns Curvularia lunata. Nature of the data set: MIC, series dilution test. The conditions noted are these: malt extract medium (2%), pH 5.2-5.4, 27° C., 48 to 72 hours. It counts as cell-based. As to the method: as §1
A further data set has as its system Aspergillus niger. The data set can be described thus: MIC, series dilution test. It is filed as cell-based. The note with it: malt extract medium (2%), pH 5.2-5.4, 27° C., 48 to 72 hours. The protocol: as §1
A further data set deals with Trichophyton quinckeanum. Nature of the data set: MIC, series dilution test. It counts as cell-based. The conditions noted are these: malt extract medium (2%), pH 5.2-5.4, 27° C., 48 to 72 hours. The protocol: as §1
Another data set deals with Candida tropicalis CK 4. Nature of the data set: MIC, series dilution test. It counts as cell-based. The conditions noted are these: malt extract medium (2%), pH 5.2-5.4, 27° C., 48 to 72 hours. As to the method: as §1
For another data set, the system named is Microsporum canis. The data set can be described thus: MIC, series dilution test. The note with it: malt extract medium (2%), pH 5.2-5.4, 27° C., 48 to 72 hours. It counts as cell-based. The protocol: as §1
Another data set relates to Candida albicans. The data set can be described thus: MIC, series dilution test. The conditions noted are these: malt extract medium (2%), pH 5.2-5.4, 27° C., 48 to 72 hours. It counts as cell-based. As to the method: as §1
A further data set in a line: Solubility. It is filed as physicochemical.

As for `CCCCCCCCCCCCCC(=O)N[C@H]1C[C@@H](O)[C@@H](O)NC(=O)[C@@H]2[C@@H](O)[C@@H](C)CN2C(=O)[C@H]([C@H](O)CC(N)=O)NC(=O)[C@H]([C@H](O)[C@@H](O)c2ccc(O)cc2)NC(=O)[C@@H]2C[C@@H](O)CN2C(=O)[C@H]([C@@H](C)O)NC1=O` [S 31794/F-1] (Myristoyl-[Orn(4R-OH,5R-OH)]T[Hyp][hTyr(3S-OH,4S-OH)][Gln(3R-OH)][Pro(3S-OH,4S-Me)]; lactam 1-C), the “effect against the usual gram-positive and gram-negative bacteria” value in [1] is “does not exhibit a significant effect”. The Stability result in “Stability” (alkaline or strong acidic conditions) was “decomposes, losing its anti-fungal activity”; in the data set “Stability” (aqueous methanol at pH 3-7.5), “stable”. Besides, the “effect against yeast and fungi, particularly against Candida strains” value in [2] is “pronounced effect”. In addition, the “MIC (minimum inhibiting concentration)” value against Candida krusei is 1 µg/mL (≈ 0.951 µM); against Sporotrichum schenkii, over 100 µg/mL; with Neurospora crassa, over 100 µg/mL; in [3] it was 32 µg/mL (≈ 30.4 µM); against Blastomyces dermatitidis, 100 µg/mL (≈ 95.1 µM); with Aspergillus fumigatus it was 32 µg/mL (≈ 30.4 µM). Further, the “MIC (minimum inhibiting concentration)” value against Candida albicans 5897 is 0.3 µg/mL (≈ 0.285 µM); in data set [4] it was 0.03 µg/mL (≈ 0.0285 µM); against Candida albicans H 12, 0.3 µg/mL (≈ 0.285 µM); against Candida tropicalis, 0.3 µg/mL (≈ 0.285 µM); against Candida albicans 439, 0.03 µg/mL (≈ 0.0285 µM); in the data set on Curvularia lunata, over 100 µg/mL. Besides, the “MIC (minimum inhibiting concentration)” value in the data set on Aspergillus niger was 100 µg/mL (≈ 95.1 µM); with Trichophyton quinckeanum, over 100 µg/mL; in the data set on Candida tropicalis CK 4 it was 0.01 µg/mL (≈ 0.00951 µM); in the data set with Microsporum canis, 100 µg/mL (≈ 95.1 µM); in the data set on Candida albicans, 0.3 µg/mL (≈ 0.285 µM). Also, the Solubility result in “Solubility” (in methanol, ethanol, pyridine and dimethyl sulphoxide) is recorded as “easily soluble”; in “Solubility” (in water, chloroform, ethyl acetate, diethyl ether, benzene and hexane), “difficulty soluble”.
